Measured values published in patent US5972894A, “Peptides having potassium channel opener activity” (Cytran, Inc., priority 1997, dated 1999).
Residues, ends and D or L forms follow the SMILES beside them.

Tests used:
Rat Portal Vein = test: KCl-induced tonic contraction of rat portal vein smooth muscle specimens; type: cell-based
Description: Spontaneous contraction curve values for each SMS were recorded by making repetitive measurements of the spontaneous contractile activity of each sample at 2, 5, 10, and 15 minutes after the addition of the test or reference substance to each SMS/organ bath. Next, 0.5 ml of a solution of 600 mM solution of KCl in […] in the organ bath until a final concentration of 60 mM KCl was achieved. The contractile activity of each SMS was then measured for 5 minutes.

rats = test: CPK activity in blood serum 1 hour after coronary occlusion; type: in vivo; conditions: for CPK Activity in blood serum: 1 hour after coronary occlusion
Description: White random-bred male rats weighing approximately 200 g were anesthetized using a light ether administration and then immobilized and artificially ventilated. […] Immediately after ligation, a test substance, positive, control substance, or negative control substance (described below) was administered to a rat through a catheterized femoral vein. Each dose of each test substance or positive or negative control substance was administered to an experimental or control group of 9 test rats. In this study, GE and VT served as test substances, propranolol served as the positive control substance, and physiological saline served as the negative control substance. Each test rat in an experimental group was given a dose of either 0.1, 1.0, or 10.0 milligram GE per kilogram of body weight of the subject animal (mg/kg) or 0.1, 1.0, or 10.0 milligram VT per kilogram of body weight of the animal. Each animal of the positive control group received an intravenous dose of 0.5 mg of β-adrenergic blocking agent, propranolol (Obzidan, Germed, Germany) per kilogram of body weight. Propranolol is commonly used to manage cardiac arrhythmia and there is some evidence that the agent may reduce the extent of ischemic damage to the heart. […] Each animal of the negative control group received physiological saline.
One hour after initiation of the coronary artery occlusion, each test animal was sacrificed, its blood was collected, and the CPK activity in its blood serum was measured. CPK activity was determined by using a standard biochemical method, such as that commercially available from the Lachema Company (Czechia) in its test kit, and by following the manufacturer's process instructions included in the package insert.
As a supplementary control for the possible trauma caused by the surgical procedure, a group of 9 sham-operated rats was included in the study. These test animals were subjected to chest dissection, but not to coronary artery occlusion. These "sham-operated" animals were not treated with any test or control substances and were euthanized 1 hour after surgery. Their blood was then collected for determination of CPK activity.

## NCC(=O)N[C@@H](CCC(=O)O)C(=O)O [GE, L-Glycyl-L-Glutamic acid] (H-Gly-Glu-OH)
Rat Portal Vein; 10^-6 g/ml, 60 mM KCl
  Area Under Curve of KCl-Induced Contraction (% of control): 90.26%
Rat Portal Vein; venous smooth muscle specimens
  effect on tonic contraction induced by KCl: neither GE nor VT effected the character of the tonic contraction
rats; 0.1 mg/kg i.v.
  CPK Activity in blood serum: 0.062 (±0.013) mcCat/L
rats; 1.0 mg/kg i.v.
  CPK Activity in blood serum: 0.056 (±0.014) mcCat/L
rats; 10.0 mg/kg i.v.
  CPK Activity in blood serum: 0.110 (±0.024) mcCat/L
rats; 0.1, 1.0, and 10.0 milligram
  extent of induced myocardial ischemic lesions (CPK in serum vs negative control): diminish the extent of induced myocardial ischemic lesions
